Where “and” joins values, the source holds several entries; their conditions need not be identical. Identical values can stand only once. Starred links: 1 amine or outer side, 2 acyl side, 3 side chain; linkers in the order of their positions; H or OH if unused. Residues, ends and D or L forms follow the SMILES beside them. Adipoyl = O=C(CCCCC(=O)[*:2])[*:1]
Legend:
rat-OFA = experiment: Wound-healing power in the rat: sutured flank incision, topical application, scar resistance to stretching by dynamometer; format: in vivo; settings: for augmentation de la cicatrisation des plaies par rapport aux témoins: 5 jours; for Résistance des cicatrices à l'étirement, Moyenne: mean of treated group (control 24,5 +/- 1,5)
Experimental: Déterminer le pouvoir cicatrisant du peptide n° 7 administré chez le rat-OFA par applications topiques aux doses de 0,75 µg, 7,5 µg et 75 µg par animal pendant cinq jours.
I - Animaux : rats de souche OFA, OF1, IFFA-CREDO, pesant de 250 à 300 g.
Conjugué peptidique n° 7, correspondant la formule : Adipoyl-Lys-Lys-Gly-His-Lys-NH2.
Mis en solution dans le propylène glycol aux doses de 1,5 µg/ml, 15 µg/ml, 150 µg/ml.
Après anesthésie générale à l'éther, une incision de 5 cm de long a été pratiquée sur la flanc droit des animaux.
Une suture en fil trinyl 2/0 a été effectuée à raison d'un point tous les 0,5 cm.
Les animaux traités comme les témoins ont subi la même intervention dans les mêmes conditions.
Le traitement a débuté le lendemain de l'intervention sur les lots d'animaux traités aux doses de 0,5 ml de solution peptidique sur chaque incision.
Soit 0,75 µg, 7,5 µg et 75 µg de peptide par animal et par application pendant la durée du traitement, soit 5 jours.
Les animaux ont été mis en observation pendant 9 jours, ils ont ensuite été sacrifiés par une dose létale de penthiobarbital.
Les zones de peau en cours de cicatrisation ont été prélevées et soumises aux "tests" d'étirement au dynamomètre, pour mesurer la résistance de la cicatrice à l'étirement.
Une analyse statistique a été effectuée sur les valeurs de résistance obtenue au dynamomètre. Une analyse de variance et un test de "T" student a été pratiqué sur les valeurs individuelles, afin de définir le seuil de signification des résultats.

[1] = tested on: fibroblastes humains de plastie mammaire; experiment: Type I collagen synthesis by cultured primary fibroblasts, secondary immunofluorescence (rhodamine/TRITC); format: cell-based, humain
Text: (§1) La mise en évidence de l'influence du conjugué n' 7 sur la synthèse de collagène de type I par des cellules en culture a été réalisée sur deux types cellulaires : • des fibroblastes humains de plastie mammaire au 3ème passage, obtenus dans notre laboratoire de culture cellulaire à l'IEB, • des MRC5, fibroblastes de poumon embryonnaire humain non transformés au passage p38, obtenus à p 25-30 chez ICN FLOW.
(§2) Les cellules sont stimulées ou non avec le conjugué n° 7, puis elles sont observées au microscope pholoniquc à fluorescence après révélation du collagène de type I par une réaction d'immuno-fluorescence secondaire.
(§3) Les cellules sont ensemencées à raison de 70 000 cellules par ml pour les fibroblastes de primoculture et 20 000 pour les MRC5.
(§4) La culture est réalisée en DMEM 10% SVF dans les tubes de Leigton contenant une lamelle dans le fond du tube, volume final : 1,6 ml.
8 tubes sont prévus par type cellulaire : 3 témoins et 5 concentrations.
Ces différentes solutions mères seront ajoutées au milieu de culture au moment du contact produit.
Les dilutions sont réalisées dans du PBS (Eurobio) - BSA 0,1% (Flucka) puis filtrées sur filtres 0,22 µm (Sartorius).
A J0, le milieu est éliminé et remplacé par du milieu frais auquel est ajouté le conjugué n° 7 aux différentes concentrations selon le tableau suivant :
Les témoins TO et T ne reçoivent que du milieu.
Le milieu est élimine; les tubes sont rincés 3 fois avec du DMEM sans sérum à 37° C. Les cellules sont fixées 20 mn à 4°C en présence de PFA 2,5% (Prolabo) dans du Hanks (Eurobio).
3 rinçages en DMEM sans sérum sont effectués suivis de 2 lavages 10 mn en PBS sans calcium ni magnésium (Eurobio). […]
(§5) Les observations microscopiques sont réalisées sur un microscope droit à fluorescence Zeiss (Axioplan), surmonté d'une caméra 3 CCD Sony (MC-3215 P/M) reliée à un moniteur vidéo Trinitron avec écran couleur Sony. […]
(§6) Les cellules sont d'abord observées en contraste interférentiel et/ou de phase. Quand un champ est sélectionné, l'image est enregistrée, puis sans bouger d'endroit l'observation est réalisée en fluorescence et enregistrée. […]

[2] = tested on: MRC5, fibroblastes de poumon embryonnaire humain; experiment: Type I collagen synthesis by cultured MRC5 fibroblasts, secondary immunofluorescence; format: cell-based; settings: MRC5, results not shown
Text: as §1, §2, §3, §4
8 tubes sont prévus par type cellulaire : 3 témoins et 5 concentrations. […]
as §5, §6

Compound: NCCCC[C@H](NC(=O)[C@H](Cc1c[nH]cn1)NC(=O)CNC(=O)[C@H](CCCCN)NC(=O)[C@H](CCCCN)NC(=O)CCCCC(=O)O)C(N)=O [conjugué 7, Adipoyl-Lys-Lys-Gly-His-Lys-NH2] (Adipoyl-KKGHK-NH2)
- augmentation de la cicatrisation des plaies par rapport aux témoins (rat-OFA; topical, 0,75 µg par jour): 14,5%
- Résistance des cicatrices à l'étirement "dynamométrie" (rat-OFA; topical, 0,75 µg/jour/5 jours, individual treated animals, sacrifice after 9 days): 28,5 Dynes and 26,1 Dynes and 29,3 Dynes and 27,7 Dynes and 28,6 Dynes
- Résistance des cicatrices à l'étirement "dynamométrie", Moyenne (rat-OFA; topical, 0,75 µg/jour/5 jours, mean of treated group (control 24,5+/-1,5)): 28,0+/-1,2 Dynes
- augmentation de la cicatrisation des plaies par rapport aux témoins (rat-OFA; topical, 75 µg par jour): 59,6%
- augmentation de la cicatrisation des plaies par rapport aux témoins (rat-OFA; topical, 7,5 µg par jour): 30,9%
- Résistance des cicatrices à l'étirement, Dynes (rat-OFA; topical, 7,5 µg/jour/5 jours (Tableau n° 2), individual treated animals): 32,6 Dynes and 30,4 Dynes and 33,1 Dynes and 32,3 Dynes and 31,8 Dynes
- Résistance des cicatrices à l'étirement, Moyenne (rat-OFA; topical, 7,5 µg/jour/5 jours (Tableau n° 2)): 32,0 +/- 1,0 Dynes
- Résistance des cicatrices à l'étirement, Dynes (rat-OFA; topical, Tableau n° 3, 7,5 µg/jour/5 jours, individual treated animals): 39,8 Dynes and 41,3 Dynes and 37,5 Dynes and 36,2 Dynes and 40,7 Dynes
- Résistance des cicatrices à l'étirement, Moyenne (rat-OFA; topical, Tableau n° 3, 7,5 µg/jour/5 jours): 39,1+/-2,2 Dynes
- aspect des cicatrisations au 9ème jour (rat-OFA; topical, day 9): cicatrisation parfaitement plate, avec absence de bourrelets cicatriciels
- action cicatrisante (rat-OFA; topical, overall conclusion): action cicatrisante hautement significative
- synthèse de collagène de type I ([1]; 10-11 M, fibroblastes de primoculture): stimule très significativement
- luminosité moyenne du rouge sur l'ensemble de l'image ([1]; 10-11 M, untreated cells 32,78): 54,8
- stimulation de la synthèse de collagène de type 1 ([1]; fibroblastes humains de primocultures, versus untreated cells): +67%
- synthèse de collagène de type I [2]: mêmes tendances

Reference: patent publication EP0869969B1, “PEPTIDE CONJUGATES, USE THEREOF AS A DRUG, AND COMPOSITIONS CONTAINING them” (INSTITUT EUROPEEN DE BIOLOGIE CELLULAIRE, priority 1995, dated 2003)
